Results published in patent US20090098536A1, “Method for subgroup analysis in subjects having or being suspected of having inflammatory disease, use of anti-p38MAPK antibodies, kits and their use” (c-a-i-r- biosciences GmbH, priority 2007, published 2009).

Tests used:
p38MAPKα = p38MAPKα (Homo sapiens, UniProt Q16539); settings: disclosed in WO 2004/110990; cited from earlier work
[1] = tested on: patients with moderate to severe rheumatoid arthritis; assay: VeRA trial of the p38MAPK inhibitor VX-702 in rheumatoid arthritis; assay type: in vivo, human; settings: according to a Monte Carlo simulation of the distribution of the effects
Method: It has been claimed that p38MAPK inhibitors were of benefit in treating a large variety of disorders. […] In the VeRA trial, which was conducted to evaluate treatment effects in terms of characteristic manifestations of the disease such as tender joints, swollen joints, morning stiffness and disease activity in a cohort of 315 patients with moderate to severe rheumatoid arthritis, approximately 40% of patients were responsive to treatment with the p38MAPK inhibitor VX-702, compared to a placebo effect of about 30%, arguing for a biochemical net response rate of about 28% according to a Monte Carlo simulation of the distribution of the effects. So far, no explanation for this evident dichotomy between responders and non-responders has been proposed yet.

[2] = tested on: patients with moderate to severe rheumatoid arthritis; settings: cohort of 315 patients with moderate to severe rheumatoid arthritis; placebo effect about 30%; cited from earlier work

Sequence of p38MAPKα (Q16539 1-360 isoform Q16539-2): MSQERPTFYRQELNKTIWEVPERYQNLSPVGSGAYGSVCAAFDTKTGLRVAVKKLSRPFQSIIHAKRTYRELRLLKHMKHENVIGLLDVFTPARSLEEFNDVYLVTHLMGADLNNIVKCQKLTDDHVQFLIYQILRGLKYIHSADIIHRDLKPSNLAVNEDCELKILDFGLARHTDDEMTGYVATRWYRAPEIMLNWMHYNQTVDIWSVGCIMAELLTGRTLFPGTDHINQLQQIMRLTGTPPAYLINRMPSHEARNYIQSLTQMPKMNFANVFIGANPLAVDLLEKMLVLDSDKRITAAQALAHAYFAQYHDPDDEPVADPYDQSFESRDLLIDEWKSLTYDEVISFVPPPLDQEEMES

| Structure (SMILES) | IC50 (p38MAPKα) | biochemical net response rate [1] | patients responsive to treatment [2] |
| --- | --- | --- | --- |
| Fc1ccc(-c2nc3occn3c2-c2ccnc(NC3CC3)n2)cc1 [4-(4-fluorophenyl)-5-(2-[cyclopropyl-amino]-pyrimidyl-4-yl)-imidazooxazole] | 0.44 nM |  |  |
| NC(=O)c1ccc(N(C(N)=O)c2c(F)cccc2F)nc1-c1ccc(F)cc1F [VX-702] |  | about 28% | approximately 40% |
